Assay results: PMC6694155, “PTPσ inhibitors promote hematopoietic stem cell regeneration” (Nature Communications, 2019)
Several values for one entry are separate records, joined by “and”; a condition that tells them apart may be missing. Equal values may be shown once. Entries after “also recorded” stand apart in the source; their conditions may differ.

Experiments:
BM CD34−KSL HSCs = assay: 7 day culture of non-irradiated BM CD34−KSL cells in TSF media; type: cell-based, mouse; details: for Supplementary Figure 3a (center panel): 7 day culture of BM CD34−KSL cells / Supplementary Figure 3a (left panel): 7 day culture of BM CD34−KSL cells / Supplementary Figure 3a (right panel): 7 day culture of BM CD34−KSL cells: replicates
Source text: BM cells were first treated with ACK lysis buffer (Sigma Aldrich) and lineage-committed cells were removed using a Direct Lineage Cell Depletion Kit (Miltenyi Biotec, #130-110-470, 1:5). Lin^− cells were stained with APC-Cy7-conjugated anti-mouse Sca1 (BD Biosciences, #560654, 1:100), PE-conjugated anti-ckit (BD Biosciences, #553355, 1:100), V450 lineage cocktail (BD Biosciences, #561301, 1:10), and FITC-conjugated anti-CD34 (BD Biosciences, #553733, 1:100) antibodies. Sterile cell sorting was conducted on a BD FACS-Aria cytometer. Purified KSL cells and CD34^−c-kit^+sca-1^+Lin^− (CD34^−KSL) cells were collected into IMDM (Life Technologies) + 10% FBS + 1% penicillin–streptomycin.
(§1) CFC assays (colony-forming unit-granulocyte monocyte), burst-forming unit-erythroid, and CFU-GEMM were performed using MethoCult GF M3434 (Stemcell Technologies)[6]. For all in vitro assays, BM CD34^−KSL cells, KSL cells, and Lin^− cells were cultured in TSF media (IMDM, 10% FBS, 1% pen-strep, 20 ng/mL recombinant mouse TPO, 125 ng/mL recombinant mouse SCF, 50 ng/mL recombinant mouse Flt3 ligand). Recombinant mouse SCF, Flt3 ligand, and TPO were purchased from R&D Systems. For competitive repopulation assays, BM cells were isolated from donor 10–12-week-old female CD45.2^+ mice. Recipient 10-week-old female CD45.1^+ B6.SJL mice were irradiated with 950 cGy TBI using a Cs137 irradiator and donor BM cells were administered via tail vein injection along with a competing dose of 1 × 10^5 non-irradiated host BM cells. Multilineage donor hematopoietic cell engraftment was measured in the PB by flow cytometry.

BM KSL cells [1] = assay: Cell cycle analysis (Ki67/7AAD) of BM KSL cells; type: cell-based, mouse; details: non-irradiated BM KSL cells, 36 hours
C57BL/6 mice = assay: 5FU chemotherapy model, hematologic recovery; type: in vivo, mouse
Protocol: Ten-week-old female C57BL/6 mice received a single tail vein injection of 250 mg/kg 5FU in 100 μL PBS. Two hours post 5FU injection, mice were administered daily subcutaneous injections of 5 mg/kg (100 μg per mouse) DJ001 or vehicle in a volume of 100 μL for 8 days. DJ001 injections were prepared in PBS, 50% PEG-400, and 10% DMSO. Corresponding vehicle injections contained PBS, 50% PEG-400, and 10% DMSO. Retro-orbital blood was collected on day + 8, + 11, and + 14 after 5FU treatment with capillary pipettes (Fisher Scientific). Complete blood counts were measured using a Hemavet 950 instrument (Drew Scientific).

[2] = tested on: progeny of irradiated human BM CD34+ cells in NSG mice; assay: Human BM transplantation assay in NSG mice; type: in vivo
Protocol: Human BM mononuclear cells were purchased from AllCells. Cryopreserved human BM cells were recovered in IMDM + 10% FBS + 1% penicillin–streptomycin and then positively selected for CD34^+ stem/progenitor cells by using CD34 MicroBead Kit (Miltenyi Biotec, #130-046-702, 1:5). CD34^+ cells were cultured in human TSF media (IMDM, 10%FBS, 1% pen-strep, 20 ng/mL recombinant human TPO, 125 ng/mL recombinant human SCF, 50 ng/mL recombinant human Flt3 ligand (R&D Systems). The progeny of 2 × 10^5 irradiated, human BM CD34^+ cultured for 36 h and treated with DJ001 at 5 μg/mL, were transplanted via tail vein injection into 10–12-week-old NSG mice preconditioned with 275 cGy TBI. Multilineage donor hematopoietic cell engraftment was monitored in the PB and BM by flow cytometry. The PB or BM cells were stained with BV605-conjugated anti-mouse CD45 (BioLegend, #103139, 1:100), AF647-conjugated anti-human CD34 (BioLegend, #343618, 1:100), FITC-conjugated anti-human CD33 (BD Biosciences, #555626, 1:100), V450-conjugated anti-human CD45 (BD Biosciences, #560368, 1:100), APC-conjugated anti-human CD3 (BD Biosciences, #555342, 1:100), and APC-Cy7-conjugated anti-human CD19 (BD Biosciences, #557791, 1:100) antibodies.

BM KSL cells [3] = assay: CFC assay from 300 cGy-irradiated BM KSL cells, 3 day culture; type: cell-based, mouse
Protocol: as §1, with “For all in vitro assays, BM CD34^−KSL cells, KSL cells, and Lin^− cells were cultured in TSF media (IMDM, 10% FBS, 1% pen-strep, 20 ng/mL recombinant mouse TPO, 125 ng/mL recombinant mouse SCF, 50 ng/mL recombinant mouse Flt3 ligand).” left out

[4] = day +8 following 250 mg/kg 5FU, 5 mg/kg DJ001 SQ daily
[5] = day +11 following 250 mg/kg 5FU, 5 mg/kg DJ001 SQ daily
[6] = day +14 following 250 mg/kg 5FU, 5 mg/kg DJ001 SQ daily
[7] = progeny of irradiated human BM CD34+ cells, individual mice, in % (unit assumed)
[8] = BM KSL cells, 300 cGy, 3 days in TSF media + DJ001

SMILES: O=C(/C=C\Nc1cccc([N+](=O)[O-])c1)c1ccccc1 [DJ001, (Z)-3-((3-nitrophenyl)amino)-1-phenylprop-2-en-1-one]
- Supplementary Figure 3a (center panel): 7 day culture of BM CD34−KSL cells (BM CD34−KSL HSCs; 10 ng/mL): 8.03 and 6.26 and 7.07 and 7.49
- Supplementary Figure 3a (left panel): 7 day culture of BM CD34−KSL cells (BM CD34−KSL HSCs; 10 ng/mL): 107000 and 154000 and 141000 and 135000
- Supplementary Figure 3a (right panel): 7 day culture of BM CD34−KSL cells (BM CD34−KSL HSCs; 10 ng/mL): 8589 and 9633 and 9964 and 10109
- Supplementary Figure 3a (center panel): 7 day culture of BM CD34−KSL cells (BM CD34−KSL HSCs; 100 ng/mL): 15.07 and 8.84 and 9.18 and 11.37
- Supplementary Figure 3a (left panel): 7 day culture of BM CD34−KSL cells (BM CD34−KSL HSCs; 100 ng/mL): 127000 and 142000 and 174000 and 219000
- Supplementary Figure 3a (right panel): 7 day culture of BM CD34−KSL cells (BM CD34−KSL HSCs; 100 ng/mL): 19062 and 12549 and 15920 and 24836
- Supplementary Figure 3a (center panel): 7 day culture of BM CD34−KSL cells (BM CD34−KSL HSCs; 1000 ng/mL): 16.07 and 11.49 and 11 and 12.87
- Supplementary Figure 3a (left panel): 7 day culture of BM CD34−KSL cells (BM CD34−KSL HSCs; 1000 ng/mL): 131000 and 209000 and 128000 and 136000
- Supplementary Figure 3a (right panel): 7 day culture of BM CD34−KSL cells (BM CD34−KSL HSCs; 1000 ng/mL): 21058 and 24017 and 14076 and 17507
- percentages and numbers of BM KSL cells in culture vs control (BM CD34−KSL HSCs; 10–1,000 ng/mL DJ001, 7 days): increased the percentages and numbers of BM KSL cells
- cell cycle status (BM KSL cells [1]): did not alter the cell cycle status
- PB NEU counts per mouse (Figure 2i right panel) (C57BL/6 mice; day 0 (pre-5FU)): 0.64 and 0.92 and 0.54 and 0.52
- PB WBCs per mouse (Figure 2i left panel) (C57BL/6 mice; day 0 (pre-5FU)): 7.24 and 8.98 and 6.9 and 7.26
- PB NEU counts per mouse (Figure 2i right panel) (C57BL/6 mice; [4]): 0.01 (2×) and 0.02 (4×) and 0.03
- PB WBCs per mouse (Figure 2i left panel) (C57BL/6 mice; [4]): 0.88 and 0.82 and 0.9 and 1 and 0.86 and 0.8 and 1.44
- PB NEU counts per mouse (Figure 2i right panel) (C57BL/6 mice; [5]): 0.08 and 0.14 and 0.11 and 0.12 and 0.07 (2×) and 0.54
- PB WBCs per mouse (Figure 2i left panel) (C57BL/6 mice; [5]): 0.78 and 3.32 and 1.78 and 2.76 and 1.44 and 3.6 and 2.12
- PB WBCs and neutrophils vs 5FU control (C57BL/6 mice; day +14): significantly increased PB WBCs and neutrophils
- PB NEU counts per mouse (Figure 2i right panel) (C57BL/6 mice; [6]): 4.15 and 1.27 and 0.57 and 0.4 and 0.82 and 1.88 and 2.76
- PB WBCs per mouse (Figure 2i left panel) (C57BL/6 mice; [6]): 13.36 and 5.12 and 4.72 and 9.58 and 8.92 and 11.92 and 17.98
- engraftment of human CD45+ cells, CD19+ B cells, CD33+ myeloid cells, and CD3+ T cells vs control ([2]; NSG mice, 12 weeks post transplant): several – fold increased multilineage engraftment; also recorded: substantially increased engraftment
- Figure 5g (center left panel): human engraftment in NSG mice [2, 7]: 0.66 and 2.13 and 0.13 and 1.76 and 1.28 and 0.22 and 0.24 and 0.04 and 0.73 and 2.53 and 0.35
- Figure 5g (center panel): human engraftment in NSG mice [2, 7]: 2.25 and 0.8 and 0.17 and 0.56 and 4.4 and 0.31 and 5 and 1.4 and 1.23 and 5.34 and 6.53
- Figure 5g (center right panel): human engraftment in NSG mice [2, 7]: 0.24 and 0.34 and 1.91 and 0.16 and 0.67 and 0.92 and 0.14 and 0.94 and 0.48 and 4.07 and 1.41 and 1.1
- Figure 5g (left panel): human engraftment in NSG mice [2, 7]: 4.16 and 2.8 and 0.36 and 1.45 and 9.56 and 0.9 and 12.2 and 3.82 and 4.68 and 14.9 and 12.5
- Figure 5g (right panel): human engraftment in NSG mice [2, 7]: 0.25 and 1.48 and 0.96 and 0.1 and 0.49 and 1.86 and 0.23 and 1.47 and 1.13 and 2 and 5.49 and 5.38
- recovery of BM CFCs and CFU-GEMM colonies vs control (BM KSL cells [3]; 300 cGy, 1 μg/mL DJ001, 3 days): increased recovery of BM CFCs
- BFU-E, numbers per replicate (BM KSL cells [3]; [8]): 2 (3×) and 4 (2×) and 3 (5×) and 1 (2×)
- GEMM, numbers per replicate (BM KSL cells [3]; [8]): 5 (3×) and 3 (2×) and 4 (2×) and 6 (5×)
- CFU-GEMM (BM KSL cells [3]; Supplementary Figure 7g): 7
- CFU-GEMM (BM KSL cells [3]; Supplementary Figure 7d): 7
